According to article PMC4502317, “Two helices in the third intracellular loop determine anoctamin 1 (TMEM16A) activation by calcium” (Pflugers Archiv, 2014):
Where no end group is shown, it is not given here. The star is where a group is joined. Biotin = O=C1N[C@H]2[C@H](CS[C@H]2CCCCC(=O)*)N1

Columns and labels:
[1] = Circular dichroism spectroscopy of reference helix peptides; assay type: physicochemical
Experimental: To confirm whether the reference helix of ANO1 forms an α-helix, circular dichroism spectroscopy was performed with synthetic peptides spanning the reference helix regions of ANO1 (652-LFEIGIPKMKKFIRYLKL-669) and ANO2 (604-IFEIGVPKLKKLFRKLKD-621).

[2] = test system: biotinylated Ca^2+ sensor helix peptide of ANO1 (692-NLEPFAGLTPEYMEM-706); assay: Surface plasmon resonance, binding to immobilized Ca^2+ sensor helix peptide; set-up: species or system mouse
Experimental: According to the gating hypothesis, physical binding of the two helices and the interference of Ca^2+ in this interaction are key determinants for gating ANO1. To investigate this relationship, physical interaction between the two helices was measured using surface plasmon resonance. A peptide segment (692-NLEPFAGLTPEYMEM-706) spanning the Ca^2+ sensor helix of ANO1 was synthesized, biotinylated at the N-terminus, and immobilized on a streptavidin-coated gold sensor chip. Subsequently, a synthetic peptide spanning the reference helix (651-[…]-671) was passed over the immobilized Ca^2+ sensor helix.
A Biacore 3000 was used for kinetic surface plasmon resonance measurement as previously described. Briefly, a biotinylated peptide (692-NLEPFAGLTPEYMEM-706) was immobilized on a SA chip or custom streptavidin-coated CM5 sensor chip (GE Healthcare), with one flow cell with biotin alone as a reference cell. For the binding assay, HEPES-buffered saline containing 0.005 % of Tween 20 was used as a running buffer. Various concentrations of the reference helix peptide (aa 651–671) were injected for 120 s and dissociated for 240 s at a flow rate of 20 μL/min. Binding curves were analyzed using BIAevaluation 3.1.

ANO1 [3] = assay: Block of Ca^2+-induced ANO1 currents by helix peptides, inside-out patches; assay type: cell-based, mouse; settings: 3 μM Ca^2+, E h = +80 mV
Experimental: Fig. 4 The reference helix of the ICL3 region interacts with the Ca^2+ sensor helix in a Ca^2+-dependent way. a, b Physical interaction between the reference and Ca^2+ sensor helices was assessed with a surface plasmon resonance assay. Biotinylated Ca^2+ sensor helix peptide (692-NLEPFAGLTPEYMEM-706) was immobilized on a streptavidin-coated gold sensor chip. Resonance intensities were measured after solutions containing 0, 0.4, and 2.0 mM Ca^2+ and various concentrations of reference helix peptide (651-[…]-671) (a) or its Ala-substituted mutants (651-[…]-671) (b) were flowed through the gold chip. […] Ca^2+ (3 μM) was applied three times to inside-out patches of ANO1-transfected HEK cells. At the second Ca^2+ challenge, the peptides were also given. […] Current amplitudes were normalized to the current amplitude obtained after of the first Ca^2+ challenge. At the second Ca^2+ challenge, reference helix peptide (black circle, **p < 0.01 compared to the relative response of vehicle application, one-way ANOVA, Newman-Keuls post hoc test, n = 13), Ala-replaced reference helix peptide (black inverted triangle, n = 8), the Ca^2+ sensor helix peptide (700-TPEYMEMIIQFGF-712) (black square, **p < 0.01 compared to the relative response of vehicle application, one-way ANOVA, Newman-Keuls post hoc test, n = 7), and vehicle (white circle, n = 8) were also applied […]
(§1) Borosilicate glass pipettes (World Precision Instruments, Sarasota, FL) with tip resistances of ~2 Mohms were used to form gigaseals on HEK cells. […] Currents were recorded with a patch-clamp amplifier (Axopatch 200B, […]) with a 1-KHz filter. […]
(§2) The control pipette solution contained 140 mM N-methyl D-glucamine, 2 mM MgCl2, and 10 mM HEPES adjusted to pH 7.2 with HCl. […] The bath solution contained (in mM) 140 N-methyl D-glucamine, 2 MgCl2, 10 HEPES, 10 chelator (EGTA, N(2-hydroxyethyl) ethylenediamine triacetic acid (HEDTA), or nitrilotriacetic acid (NTA)), and a calculated amount of CaCl2 (adjusted with HCl to pH 7.2). […] Free Ca^2+ less than 30 μM in each solution was monitored with Fura-2 fluorometry.

ANO1 [4] = assay: Inhibition of Eact-activated ANO1 currents by helix peptides, inside-out patches; assay type: cell-based, mouse; settings: n = 5
Experimental: Fig. 6 Eact, a synthetic agonist of ANO1 acts on the ICL3 region. a Example traces depicting activation by Eact of WT ANO1 (upper left), 444-EEEEE-448 (Δ5E, upper right), ΔICL3 (lower left), and 659-QMQQFIAYLQ-668 mutant (lower right). b Example traces of Eact-induced ANO1 currents, which were blocked by bath application of the reference helix peptide (Ref helix peptide, 651-[…]-671, 4 μM, lower panel) but not by the Ca^2+ sensor helix peptide (CSH peptide, 700-TPEYMEMIIQFGF-712, 10 μM, middle panel). To test the effects of peptide, 1 μM Eact was applied three times. At the second Eact challenge, each peptide was also applied. c A summary of the effects of applications of helix peptides on Eact-induced ANO1 currents. Current amplitudes were normalized to the current amplitude obtained after of the first Eact challenge. Reference helix peptide (black square, n = 5), its Ala-mutant peptide (black inverted triangle, n = 5), Ca^2+ sensor helix peptide (black triangle, n = 5), or vehicle (white circle, n = 14) was applied at the second Eact challenge. *p < 0.05 compared to the relative response of vehicle application, one-way ANOVA followed by Newman-Keuls post hoc test
We then applied the two helix peptides to see if these peptides compete with Eact in activating ANO1.
All mutants were generated from the wild-type construct, mouse ANO1 (pEGFP-N1-mANO1). […]
as §1, §2

Δ5E ANO1 mutant = assay: Eact activation of Δ5E ANO1 mutant, inside-out patches; assay type: cell-based, mouse; settings: maximal Eact (10 μM)
Experimental: (§3) Eact, a synthetic agonist of ANO1, was synthesized for the purpose of treating cystic fibrosis in an attempt to bypass dysfunctioning CFTR channel. Even though Eact was known to activate ANO1, the activation mechanism is not known. We therefore hypothesized that Eact also acts on the ICL3 region.
(§4) All mutants were generated from the wild-type construct, mouse ANO1 (pEGFP-N1-mANO1). Amino acid substitution or deletion mutants were prepared using a site-directed mutagenesis kit (Muta-direct, iNtRON Biotech) or by using the overlap PCR method. Mutations in all mutants were confirmed by sequencing whole nucleotide sequences. […]
as §1, §2

[5] = test system: ΔICL3, the deletion mutant of ANO1 in the ICL3 region; assay: Eact activation of ΔICL3 ANO1 mutant; assay type: cell-based, mouse
Experimental: as §3, §4, §1, §2

[6] = test system: ANO1 285-AGAYAGA-291 mutant; assay: Eact activation of ANO1 EF-hand-like region mutant; assay type: cell-based, mouse; settings: data not shown
Experimental: as §3, §4, §1, §2

ANO1 QYMQ mutant = assay: Eact activation of ANO1 Ca^2+ sensor helix mutant; assay type: cell-based, mouse; settings: data not shown
Experimental: as §3, §4, §1, §2

ANO1 [7] = assay: Eact activation of ANO1, inside-out patches; assay type: cell-based, mouse; settings: 1 μM Eact to bath of inside-out patch
Experimental: as §3, §4, §1, §2

[8] = test system: ANO1 659-QMQQFIAYLQ-668 mutant; assay: Eact activation of ANO1 reference helix mutant; assay type: cell-based, mouse
Experimental: as §3, §4, §1, §2

[9] = target: T1, Ca2+ sensor helix peptide of ANO1 (692-NLEPFAGLTPEYMEM-706), biotinylated (mouse); assay: SPR; Biacore 3000; biotinylated Ca2+ sensor helix peptide immobilised on an SA chip or custom streptavidin-coated CM5 chip, reference cell with biotin alone; HEPES-buffered saline with 0.005 % Tween 20; various concentrations of reference helix peptide injected for 120 s, dissociation 240 s, 20 uL/min; solutions with 0, 0.4 and 2.0 mM Ca2+ (Ca2+ reduced the interaction dose-dependently); settings: both partners purified
T1 construct: Anoctamin 1 (ANO1/TMEM16A), mouse, residues 692-706, Ca2+ sensor helix of the third intracellular loop (ICL3); Held on the streptavidin chip by its N-terminal biotin; also called biotinylated Ca2+ sensor helix peptide; source: synthetic peptide
T1 peptide: Biotin-NLEPFAGLTPEYMEM

## 604-IFEIGVPKLKKLFRKLKD-621
[1]
  circular dichroism spectrum: typical circular dichroism spectrum of an α-helix with a positive band around 192 nm and negative bands around 208 and 222 nm

## 651-NLFEIGIPAMAAFIAYLALAA-671 [Ala-mutant reference helix peptide]
[2]; regardless of Ca^2+ concentration (0, 0.4 and 2.0 mM)
  interaction with Ca^2+ sensor helix peptide: failed to show any interaction
ANO1 [3]; 4 μM Ala-mutant peptide, n = 8
  effect on Ca^2+-induced ANO1 currents: failed to block
ANO1 [4]; Ala-substituted peptide with 1 μM Eact
  effect on Eact-activated ANO1 currents: failed to inhibit

## 651-NLFEIGIPKMKKFIRYLKLRR-671 [reference helix peptide]
[2]; absence of Ca^2+, Biacore 3000, HEPES-buffered saline, 0.005 % Tween 20, 20 μL/min, 120 s injection, 240 s dissociation
  interaction with Ca^2+ sensor helix peptide: interacted strongly with the Ca^2+ sensor helix
ANO1 [3]; 4 μM peptide, p < 0.01 vs vehicle, one-way ANOVA, Newman-Keuls, n = 13
  effect on Ca^2+-induced ANO1 currents: markedly blocked
ANO1 [4]; 4 μM peptide with 1 μM Eact, p < 0.05 vs vehicle, one-way ANOVA, Newman-Keuls
  effect on Eact-activated ANO1 currents: significantly inhibited

## 652-LFEIGIPKMKKFIRYLKL-669
[1]
  circular dichroism spectrum: typical circular dichroism spectrum of an α-helix with a positive band around 192 nm and negative bands around 208 and 222 nm

## 700-TPEYMEMIIQFGF-712 [Ca^2+ sensor helix peptide, Ca^2+ sensor helix peptide (700-…-712)]
ANO1 [3]; 10 μM peptide, p < 0.01 vs vehicle, one-way ANOVA, Newman-Keuls, n = 7
  effect on Ca^2+-induced ANO1 currents: markedly blocked
ANO1 [4]; 10 μM peptide with 1 μM Eact
  effect on Eact-activated ANO1 currents: failed to inhibit

## COCCN(C(=O)c1cc(OC)c(OC)c(OC)c1)c1nc(-c2ccccc2)cs1 [Eact]
Δ5E ANO1 mutant
  activation by Eact: activated the Δ5E ANO1 mutant
[5]
  activation by Eact: failed to activate
[6]
  activation by Eact: activated 285-AGAYAGA-291 mutant
ANO1 QYMQ mutant
  activation by Eact: failed to activate
ANO1 [7]
  activation of ANO1 by Eact: activated ANO1
[8]
  activation by Eact: failed to activate

## NLFEIGIPKMKKFIRYLKLRR (source: synthetic peptide) [reference helix peptide of ANO1 (651-NLFEIGIPKMKKFIRYLKLRR-671)]
[9]
  binding result: binds
